The values that follow come from US20090042783A1, “APO E ANALOGS AND METHODS FOR THEIR USE” (priority 2004, published 2009).

Marks after values point to notes of the source that are not given here.

Series [1] concerns BV2 microglial cells. As to the method:
For suppression of inflammation profiling, each peptide analog was tested at a final concentration of 0.1, […], 1, 3, 5, 10 and 25 μM in an LPS induced BV2 microglial cell release of NO and/or TNFα. […] The modification was a biotin label on the apoE peptide (biotin-[…]-amide) which allows detection with ^125I-streptavidin (ISA, Amersham).
In overview, BV-2 cells are plated in 96 well plates in complete media and then the media is replaced the next day with serum free media or reduced serum (1%) media. […] Each concentration of peptide (standard initial concentrations are 0.1, 0.5, 1, 3, 10 and 25 μM) is added to at least 6 wells of cells (e.g. 6 wells get 0.1 μM peptide, 6 wells get 0.5 μM peptide, etc.) and data are averaged from all 6 wells. […] (2001). Cell viability is also measured with an MTT assay (Laskowitz et al. 2001).

In series [2] the test system is C57BL/6J mice with MOG-induced EAE. Briefly: MOG-induced experimental autoimmune encephalomyelitis (EAE). As to the method:
EAE was induced in mice following the method of Feinstein et al. (Feinstein, Galea, et al. 2002) 1) two s.c. injections, one on each flank of the hind legs with 300 μg MOG35-55 peptide in 0.1 ml PBS emulsified in an equal volume of CFA containing 5 mg/ml of Mycobacterium tuberculosis H37RA (Difco, St. Louis, Mo.) were given on Day 0.2) Pertussis toxin (200 ng per mouse in 0.1 ml PBS) was given i.p. immediately and 48 h after first MOG injection. 3) a booster immunization with an identical emulsion, route of administration and location was given on Day 7.
Following the encephalitogenic challenge, mice were monitored daily and neurological impairment was evaluated by clinical score (C.S.) as follows: 0, no clinical signs of EAE; 1, limp tail; 2, flaccid tail and abnormal gait (ataxia and/or paresis of hind limbs); 3, severe hind limb paresis; 4, complete paralysis with hind body; and 5, moribund or death.
Mice were anesthetized, bled, and perfused with 25 ml PBS and 25 ml 4% paraformaldehyde in buffered PBS. Brains and spinal cords were dissected out from 3 mice with a clinical score of 0 and another 3 mice with a clinical score of 4 on day 30 post-immunization. Tissues were post-fixed in 4% paraformaldehyde for another 24 h and then stored in 1×PBS with 0.1% sodium azide. Fixed tissues were embedded in paraffin and 5 μm thick sections were cut from brain, the brain stem and three different levels of spinal cord (cervical, thoracic and lumbar). Sections were stained with hematoxylin/eosin for evidence of inflammation and Luxol fast blue (for demyelination). The severity of inflammation was evaluated using the following criteria: 0, no inflammation; 1, cellular infiltrates only in the perivascular areas and meninges; 2, mild cellular infiltrates only in parenchyma (1-10/section); 3, moderate cellular infiltrates in parenchyma (11-100/section); 4, marked cellular infiltrates in parenchyma (>100 section).
In total, 10 doses of peptides were given.

In series [3] the test system is peritoneal macrophages. Kind of series: Peritoneal macrophage production of NO, TNFα and IL-6 induced by MOG or LPS/IFN-γ. Type of series: cell-based, mouse. As to the method:
For this purpose, three mice with clinical scores of 0 and three with clinical scores of 4 at 30 dpi (day post-immunization) were used for preparation of peritoneal macrophage cultures. Macrophages were collected after peritoneal lavage with 3 ml heparin (10 U/ml)-containing PBS and then seeded to 96-well microplates at a density of 1×10^5 cells/well in Dulbecco's MEM containing 10% fetal bovine serum, 2 mM L-glutamine serum, 1% HEPES and 100 U/ml penicillin and 100 μg/ml streptomycin, 37° C. in a humidified incubator with 5% CO2. 24 h later, the serum-containing medium was removed and cells were washed once with serum-free medium. To examine the differentiated response of macrophage to immune stimulators, macrophages obtained from mice with clinical scores of 0 or 4 were exposed to serial concentrations of IFN-γ/LPS or MOG35-55 peptide. […] Media were collected at 45 h or 72 h, and analyzed by ELISA for […] and IL-6 or for nitric oxide (NO) as detailed below.
As the stable end product of nitric oxide release, nitrite levels in conditioned media were determined by injecting 50 μl media sample into a Sievers 280 NOA analyzer (Boulder, Colo., USA). Total protein (μg/well) was measured using the BCA method (Pierce, Rockford, Ill., USA) according to manufacturer's instructions with BSA as standard. BCA values were measured using a Molecular Devices Thermomax Microplate Reader (Menlo Park, Calif., USA) at OD562. Nitric oxide levels ere expressed as μM NO2—/mg protein.
For cytokine assays, supernatants were collected 45 h after […]/LPS or MOG treatments and quantitative ELISAs using selected pairs of monoclonal antibodies (as recommended by the manufacturer Biosource) were performed to quantify the cytokines, TNF-α and IL-6. For TNF-α ELISA, 96-well ELISA plates were pre-coated with rabbit anti-mouse polyclonal to TNF-α as capture antibodies for 18 h at 2-8° C. and then blocked for 2 h at room temperature. The wells were incubated with samples or mouse TNF-α standards. Following incubation for 2 h at room temperature, the wells were washed, after which hamster anti-mouse TNF-α biotinylated secondary antibody and horseradish peroxidase conjugate were added. Tetramethylbenzidine (TMB) solution was then added, and peroxidase-catalyzed color change was stopped by acidification with 2 NH2SO4. The plates were scanned at wavelength 450 nm and the absorbance were measured. The results are expressed as the mean concentration (pg/ml) ±SEM.
For IL-6 ELISA, rat anti-mouse monoclonal to IL-6 was used as capture antibody, and biotinylated rat anti-mouse monoclonal to IL-6 as detection antibody. The rest of procedure is identical to that of TNF-α ELISA.

Series [4] deals with mice infected with C. rodentium. Briefly: C. rodentium colitis. In kind it is in vivo. The conditions noted are these: for Colon wt (% Total Body wt) / Histology Score / Body wt (% Total Body wt): 10 days; for Body wt (% Total Body wt): 0.1% BEC or 2.5% DFMO; for Inhibition of mortality vs water alone: 1% L-Arg in drinking water. The source says: C. rodentium colitis: Of the two existing mouse models (Gobert A P et al., 2004; Cheng Y. et al., 2003), the C. rodentium model was selected because it produces a Th1-predominant mucosal inflammation that has histologic changes similar to human IBD (Higgins L M et al., 1999). In this model, mice are infected by oral gavage with C. rodentium (Gobert A P et al., 2004), a gram negative pathogenic bacterium that is the rodent equivalent of enteropathogenic E. coli that causes diarrhea in humans.
Since arginase I and iNOS were both abundantly expressed in the colitis tissues and L-Arg was completely metabolized, we investigated the effect of administration of 1% L-Arg in the drinking water. In wild type (WT) mice, C. rodentium colitis induced a high level of mortality that began on day 9 post-infection (FIG. 31A). In WT animals treated with L-Arg, mortality was inhibited by 42% and 62% compared to mice receiving water alone, after 12 and 14 days of infection, respectively (FIG. 31A). By Cox regression analysis, WT mice treated with L-Arg had only a 31% hazard of death compared with mice receiving water alone (p<0.0009). In iNOS^−/− mice, no deaths were observed, with or without L-Arg (FIG. 31A). […] Note that the weight loss of WT mice is underestimated, since only the weights of animals still alive could be included. […] There was an additive effect of iNOS deletion and L-Arg administration, with a 68% decrease in colon weight. Neither iNOS deletion nor L-Arg treatment affected colon weight in uninfected control mice. Importantly, these changes were closely paralleled by changes in colon histology (FIG. 32).
In uninfected control mice, BEC or DFMO had no effect (Table I). […] In fact, experiments had to be terminated early at 10 days post-infection, because of deaths and severe disease at this point.

The subject of series [5] is mice with DSS colitis. Kind of series: Dextran sulfate sodium (DSS) colitis. In kind it is in vivo, mouse. An excerpt:
This model was selected because it has become commonly accepted as a mouse model of colitis and is quite practical to employ, since it simply involves adding DSS to the drinking water (Moteau O. et al., 2000, Williams K L et al. 2001, Andres P G et al., 2000, Mahler M. et al., 1998, Tesser T G et al., 1998).

With “LLRKRLKRLHSALRVRL (Reverse of COG133) [Reverse Pep., ApoE reverse peptide, scrambled control of COG133]”, the “Suppression of NO and/or TNFα release from LPS treated BV2 cells” value in series [1] is listed as “lacked bioactivity”. Besides, in series [2] (1 mg/kg i.v., 10 doses), the “Clinical severity of EAE” value is “did not improve the behavioral symptoms of EAE”, the Incidence was 10/10 and the Mortality is recorded as 3/10. Besides, in series [2] (1 mg/kg i.v., 10 doses Day 6-22, mean ± SEM), the Day of onset came to 17.3 ± 1.12. The Mortality in series [2] (1 mg/kg i.v., 10 doses, listed as reverse peptide) is reported as 5 of 15. In series [2] (clinical score 0-5, mean ± SEM), this compound had a Mean maximum score of 3.9 ± 0.31. For the same compound, in series [3] (COG133 at 1 μM rather than at 5 μM, P<0.05), the “LPS/IFN-γ-induced production of NO, TNFα and IL-6” value is “failed to inhibit this production”. Also, in series [3] (macrophages from C.S. 4 mice, 72 h after MOG 20 μg/ml), the “MOG-induced production of NO and TNFα” value is “did not display such an inhibitory effect”.
On to `N[C@@H](CSCCB(O)O)C(=O)O` [BEC, S-(2-boronoethyl)-L-cysteine], for which, in series [4] (WT mice, C. rodentium), the “Colon wt (% Total Body wt)” value is 1.25 ± 0.07^b,d % Total Body wt, the “Histology Score” value is 9.25 ± 0.69^b,d and the “Body wt (% Total Body wt)” value is recorded as 82.4 ± 5.2^a,c % Total Body wt. Also, in series [4] (WT mice, PBS (uninfected)), the “Colon wt (% Total Body wt)” value is listed as 0.42 ± 0.04 % Total Body wt, the “Histology Score” value was determined as 0.67 ± 0.17 and the “Body wt (% Total Body wt)” value is reported as 110.1 ± 2.2 % Total Body wt. For the same compound, the “Colon histologic injury score” value in series [4] (iNOS−/− C. rodentium-infected mice + BEC, n=8, p<0.01) worked out at 6.44±0.98. The Colon weight in series [4] (iNOS−/− C. rodentium-infected mice + BEC, p<0.05) is given as 0.92±0.20 % of total body weight. In series [4] (in the drinking water), the “Effect in uninfected control mice” value is given as “had no effect” and the “Survival of C. rodentium-infected mice” value is “significant loss of survival”. Further, the “Clinical and histologic parameters of DSS colitis” value in series [5] (WT and iNOS−/− mice, data not shown) is “exacerbation of clinical and histologic parameters of colitis”.
Regarding `N=C(N)NCCC[C@H](N)C(=O)O` [L-Arg], the “Inhibition of mortality vs water alone” value in series [4] (WT mice, 12 days of infection) turned out to be 42%; in series [4] (WT mice, 14 days of infection) it was 62%. Besides, the “Hazard of death compared with water alone (Cox regression)” value in series [4] (WT mice, p<0.0009) was 31%. For the same compound, the “Decrease in colon weight” value in series [4] (infected WT mice) is 28%; in series [4] (infected iNOS−/− mice given L-Arg), 68%. Further, the Weight loss result in series [4] (infected WT mice) was “reduced weight loss”. For the same compound, the “Increase in colonic ODC activity” value in series [4] (infected WT mice treated with L-Arg) was 40 fold. The “Increase in colonic polyamines” value in series [4] (infected WT mice with L-Arg treatment) amounted to 2.7±0.2 fold. Besides, the “IFN-γ, TNF-α and IL-1 mRNA in colitis tissues” value in series [4] (real-time PCR) is “significant attenuation of these increases”. The “Clinical parameters of DSS colitis” value in series [5] (L-Arg (1%)) is “reduction in clinical parameters of colitis”. For the same compound, the “Colonic polyamine levels in DSS colitis” value in series [5] (mouse, in vivo) is “enhanced polyamine levels”.
